Data set [1] has as its system L929 mouse fibroblast cells. Put plainly: Growth inhibition, MTT assay, L929. As to conditions: for Cytotoxicity / activity relative to tubulysin D, in words: statement on Table 2 cell lines. In kind it is cell-based. The procedure:
(§1) Cell lines were obtained from the American Type Culture Collection (ATCC) and the German Collection of Microorganisms and Cell Cultures (DSMZ). All cell lines were cultivated under conditions recommended by their respective depositors. Growth inhibition was measured in microtiter plates. Aliquots of 120 μl of the suspended cells (50,000/mL) were given to 60 μL of a serial dilution of the inhibitor and incubated at 37° C. and 10% CO2. After 5 days, when control cells had grown to confluence state, the metabolic activity in each well was determined using an MTT assay.
(In general: Formazan colour is commonly taken as a measure of viable cells.)

Data set [2] concerns SW-480 human colon adenocarcinoma cells. The experiment in a line: Growth inhibition, MTT assay, SW-480. In kind it is cell-based. Conditions: for Activity relative to tubulysin D in SW-480, in words: colon cancer cell line SW-480. The procedure:
as §1

The test system of data set [3] is KB-3-1 human cervix carcinoma cells. The experiment in a line: Growth inhibition, MTT assay, KB-3-1. It is filed as cell-based. Conditions: KB 3-1, 120 h; human cervix carcinoma (DSMZ ACC 158); MTT after 5 days; read-out: IC50 (ng/mL) KB-3-1. The protocol:
as §1

Data set [4] is described as follows: Growth inhibition, MTT assay, L929. It is filed as cell-based, Mouse. Conditions: mouse, L929 mouse fibroblast cells; cell line not given; read-out: Cytotoxicity (text, refers to Table 2). The protocol: as §1

Results on ten molecules are retold here after patent US8476451B2 (priority 2007, dated 2013).

SMILES strings stand for the structures. Converted amounts (≈) assume the structure as drawn.

Take `CC[C@H](C)[C@H](NC(=O)[C@H]1CCCCN1C)C(=O)N(COC(=O)CC(C)C)[C@H](C[C@@H](OC(C)=O)c1nc(C(=O)NCCc2ccccc2)cs1)C(C)C` [Analogue 2, 3-methyl-butyric acid ({1-[2-acetoxy-2-(4-phenethylcarbamoyl-thiazol-2-yl)-ethyl]-2-methyl-propyl}-{3-methyl-2-[(1-methyl-piperidine-2-carbonyl)-amino]-pentanoyl}-amino)-methyl ester]: the “Cytotoxicity / activity relative to tubulysin D, in words” value in data set [1] is reported as “cytoxicity comparable to the parent tubulysin”.

As to `CC[C@H](C)[C@H](NC(=O)[C@H]1CCCCN1C)C(=O)N(COC(=O)CC(C)C)[C@H](C[C@@H](OC(C)=O)c1nc(C(=O)NCCCC(=O)O)cs1)C(C)C` [Analogue 3, 3-Methyl-butyric acid ((1-{2-acetoxy-2-[4-(3-carboxy-propylcarbamoyl)-thiazol-2-yl]-ethyl}-2-methyl-propyl)-{3-methyl-2-[(1-methyl-piperidine-2-carbonyl)-amino]-pentanoyl}-amino)-methyl ester], in data set [1], the “Cytotoxicity / activity relative to tubulysin D, in words” value is “cytoxicity comparable to the parent tubulysin”.

For `CC[C@H](C)[C@H](NC(=O)[C@H]1CCCCN1C)C(=O)N(COC(=O)CC(C)C)[C@H](C[C@@H](OC(C)=O)c1nc(C(=O)NC)cs1)C(C)C` [Analogue 4, 3-methyl-butyric acid ({1-[2-acetoxy-2-(4-methylcarbamoyl-thiazol-2-yl)-ethyl]-2-methyl-propyl}-{3-methyl-2-[(1-methyl-piperidine-2-carbonyl)-amino]-pentanoyl}-amino)-methyl ester], the “Cytotoxicity / activity relative to tubulysin D, in words” value in data set [1] is reported as “maintained good activity”.

For `CC[C@H](C)[C@H](NC(=O)[C@H]1CCCCN1C)C(=O)N(COC(=O)CC(C)C)[C@H](C[C@@H](OC(C)=O)c1nc(C(=O)O)cs1)C(C)C` [Analogue 5, 2-[1-acetoxy-4-methyl-3-((3-methyl-butyryloxymethyl)-{3-methyl-2-[(1-methyl-piperidine-2-carbonyl)-amino]-pentanoyl}-amino)-pentyl]-thiazole-4-carboxylic acid], in data set [1], the “Cytotoxicity / activity relative to tubulysin D, in words” value is listed as “maintained good activity”.

As for `CC[C@H](C)[C@H](NC(=O)CN(C)C)C(=O)N(COC(=O)CC(C)C)[C@H](C[C@@H](OC(C)=O)c1nc(C(=O)N[C@@H](Cc2ccccc2)C[C@H](C)C(=O)O)cs1)C(C)C` [Analogue 6, 4-[(2-{1-acetoxy-3-[[2-(2-dimethylamino-acetylamino)-3-methyl-pentanoyl]-(3-methyl-butyryloxymethyl)-amino]-4-methyl-pentyl}-thiazole-4-carbonyl)-amino]-2-methyl-5-phenyl-pentanoic acid], in data set [1], the “Cytotoxicity / activity relative to tubulysin D, in words” value is “essentially equipotent with tubulysin D”. The “Activity relative to tubulysin D in SW-480, in words” value in data set [2] was “more active than tubulysin D”.

As to `CC[C@H](C)[C@H](NC(C)=O)C(=O)N(COC(=O)CC(C)C)[C@H](C[C@@H](OC(C)=O)c1nc(C(=O)N[C@@H](Cc2ccccc2)C[C@H](C)C(=O)O)cs1)C(C)C` [Analogue 7], the “Cytotoxicity / activity relative to tubulysin D, in words” value in data set [1] is “drastic decrease in activity”.

As for `CC[C@H](C)[C@H](N=[N+]=[N-])C(=O)N(COC(=O)CC(C)C)[C@H](C[C@@H](OC(C)=O)c1nc(C(=O)N[C@@H](Cc2ccccc2)C[C@H](C)C(=O)O)cs1)C(C)C` [Analogue 8, 4-[(2-{1-acetoxy-3-[(2-azido-3-methyl-pentanoyl)-(3-methyl-butyryloxymethyl)-amino]-4-methyl-pentyl}-thiazole-4-carbonyl)-amino]-2-methyl-5-phenyl-pentanoic acid], the “Cytotoxicity / activity relative to tubulysin D, in words” value in data set [1] was “drastic decrease in activity”.

As to `CC[C@H](C)[C@H](NC(=O)[C@H]1CCCCN1C)C(=O)N(COC(=O)CC(C)C)[C@H](C[C@@H](O)c1nc(C(=O)N[C@@H](Cc2ccccc2)C[C@H](C)C(=O)O)cs1)C(C)C` [Analogue 9], the IC50 in data set [1] (L929, 120 h, mouse fibroblasts (DSMZ ACC 2), MTT after 5 days, read-out: IC50 (ng/mL) L929) worked out at 0.25 ng/mL (≈ 0.318 nM); in data set [2] (SW480, 120 h, human colon adenocarcinoma (ATCC CCL-228), MTT after 5 days, read-out: IC50 (ng/mL) SW-480), 0.057 ng/mL (≈ 0.0725 nM); in data set [3], 0.22 ng/mL (≈ 0.28 nM). Besides, the “Cytotoxicity / activity relative to tubulysin D, in words” value in data set [1] is “minimal drop in cytotoxicity relative to the natural product”.

For the molecule `CC[C@H](C)[C@H](NC(=O)[C@H]1CCCCN1C)C(=O)N(C)[C@H](C[C@@H](OC(C)=O)c1nc(C(=O)N[C@@H](Cc2ccccc2)C[C@H](C)C(=O)O)cs1)C(C)C` [Analogue 10, 4-({2-[1-Acetoxy-4-methyl-3-(methyl-{3-methyl-2-[(1-methyl-piperidine-2-carbonyl)-amino]-pentanoyl}-amino)-pentyl]-thiazole-4-carbonyl}-amino)-2-methyl-5-phenyl-pentanoic acid], in data set [2], the “Activity relative to tubulysin D in SW-480, in words” value is listed as “more active than tubulysin D”.

Consider `CC[C@H](C)[C@H](NC(=O)[C@H]1CCCCN1C)C(=O)N(C)[C@H](C[C@@H](OC(C)=O)c1nc(C(=O)NC)cs1)C(C)C` [Analogue 11, acetic acid 4-methyl-1-(4-methylcarbamoyl-thiazol-2-yl)-3-(methyl-{3-methyl-2-[(1-methyl-piperidine-2-carbonyl)-amino]-pentanoyl}-amino)-pentyl ester], for which the IC50 at 5 days in data set [4] was 2 ng/mL (≈ 3.62 nM).
